Data: US20100286105A1, “METHODS OF TREATING HYPERANDROGENISM AND CONDITIONS ASSOCIATED THEREWITH BY ADMINISTERING A FATTY ACID ESTER OF AN ESTROGEN OR AN ESTROGEN DERIVATIVE” (priority 2006, published 2010)

Columns and labels:
Format in all cases: in vivo, human
[1] = Part 2: pharmacokinetics, plasma concentration of oleoyl-estrone; details: for Cmax: 100 mg, 100 mg group (highest)
Experimental: (§1) For the second part of the study, […] subjects were divided into […]. Each group was dosed with a single daily dose of 10, 30, 100, or 150 mg oleoyl-estrone for a seven day period. Each individual in the group of 4 was randomized to oleoyl-estrone or placebo.
(§2) Subjects under went a physical examination to establish height, weight, BMI and baseline signs and symptoms. Electrocardiograms and vital signs were taken. Blood for evaluation of hematology, coagulation and clinical chemistry and urine for urinalysis were obtained for each subject. Samples were also taken for hormone analysis, including estrone, estradiol and testosterone. Food-intake and motivation-to-eat using visual analogue scale questionnaires were analyzed.
(§3) Males and post-menopausal females were recruited in both parts of the study. The trial protocol provided that patients should maintain a normal diet and level of activity, but required that patients abstain from consuming alcohol. At baseline, in the placebo group me mean patient weight was 100.5±4.9 kg and BMI 34.4±3.5 and in the oleoyl-estrone group the weight was 100.5±17.8 kg and the average BMI was 34±4.2. The results discussed below are from the second part of the study.

humans [2] = assay: Part 1: single oral dose safety and tolerability study of oleoyl-estrone in humans; details: one-time single oral dose
Experimental: (§4) A two-part study was conducted to evaluate the safety, tolerability, and pharmacokinetic (PK) profiles of single and multiple doses of oleoyl-estrone in humans.
For the first part of the study, thirty-six subjects where divided into groups of six. Each group was dosed with a single dose of 1, 3, 10, 30, 100, or 150 mg of oleoyl-estrone. Each individual in the group of 6 was randomized to oleoyl-estrone or placebo in a ratio of 2:1 where for every two individuals given oleoyl-estrone one is given a placebo.
Subjects under went a physical examination to establish height, weight, BMI and baseline signs and symptoms. Electrocardiograms and vital signs were taken. Blood for evaluation of hematology, coagulation and clinical chemistry and urine for urinalysis were obtained for each subject. Samples were also taken for hormone analysis, including estrone, estradiol and testosterone.

humans [3] = assay: Part 2: hormone levels (estrone, estradiol, testosterone, LH, leptin, CRP); details: 7 days daily oral dosing
Experimental: as §1, §2, §3

humans [4] = assay: Part 2: hematology and clinical chemistry (white blood cells, lipids, glucose)
Experimental: as §1, §2, §3

humans [5] = assay: Part 2: seven-day daily oral dose safety and tolerability study in humans
Experimental: as §4, §1, §2, §3

humans [6] = assay: Part 2: body weight and food consumption (visual analogue scale questionnaires)
Experimental: as §1, §2, §3

[7] = oleoyl-estrone treated group, 7 days daily oral dosing

Structure (SMILES): CCCCCCCC/C=C\CCCCCCCC(=O)Oc1ccc2c(c1)CC[C@@H]1[C@@H]2CC[C@]2(C)C(=O)CC[C@@H]12 [oleoyl-estrone, [3(Z)]-3-[(1-oxo-9-octadecenyl)oxy]-estra-1,3,5(10)-trien-17-one]
- plasma concentration of oleoyl-estrone versus administered dose level ([1]; 10-150 mg daily oral, assay of limited sensitivity): did not increase with the administered dose level
- accumulation in plasma ([1]; Day 7 relative to Day 1, daily oral dosing for 7 consecutive days): no clear accumulation in plasma
- Cmax ([1]; both sexes, human, plasma, oral, Day 1): 2.4 ng/mL
- Cmax ([1]; both sexes, human, plasma, oral, Day 7): 3.2 ng/mL
- concentration at 1 day ([1]; both sexes, human, plasma, oral, Day 1, across dose groups, read-out: oleoyl-estrone plasma levels): 0.3 to 2.4 ng/mL
- concentration at 7 day ([1]; both sexes, human, plasma, oral, Day 7, across dose groups, read-out: oleoyl-estrone plasma levels): 0.3 to 3 ng/mL
- sex differences in plasma concentration-time profiles ([1]; males and post-menopausal females): no clear differences between the sexes
- safety and tolerability (humans [2]; 1 to 150 mg): safe, well tolerated at oral doses up to 150 mg
- serious adverse events (humans [2]; up to 150 mg): no serious adverse events were noted
- effects on LH (humans [3]): less clear-cut
- mean estradiol levels (humans [3]): elevated
- mean estrone levels (humans [3]): elevated
- mean testosterone levels (humans [3]): suppressed in a reversible and dose dependent manner
- CRP (humans [3]; to Day 15): increased in a dose-dependent manner, returning to baseline by Day 15
- leptin (humans [3]; to Day 15): increased in a dose-dependent manner, returning to baseline by Day 15
- mean HDL cholesterol (humans [4]; 7 days daily oral dosing): increased
- mean LDL cholesterol (humans [4]; 7 days daily oral dosing): decreased
- HDL:LDL cholesterol ratio (humans [4]; 7 days daily oral dosing, even lower doses): increase in the HDL:LDL cholesterol ratio even at the lower doses
- mean glucose concentration (humans [4]; 7 days daily oral dosing, up to Day 15): fell in a reversible and dose dependent manner and was still low at Day 15
- total mean cholesterol (humans [4]; Day 7, 100-150 mg): decrease at Day 7 with 100-150 mg
- white blood cell count (humans [4]; Day 7 and Day 15): increase in white blood cell count was seen in Day 7 but returned to baseline by Day 15
- total mean TAGs (humans [4]; all doses, all days): dose-dependent increase at all doses and on all days
- changes in physical examinations, vital signs, ECGs, coagulation or liver function tests (humans [5]; 7 days daily oral dosing): no clinically significant changes
- post-menopausal bleeding (humans [5]; oleoyl-estrone study volunteers, similar episode 6 months prior to dosing): one had post-menopausal bleeding
- adverse effect: back pain (n affected/n treated) (humans [5]; [7]): 4/17
- adverse effect: diarrhea (n affected/n treated) (humans [5]; [7]): 3/17
- adverse effect: headache (n affected/n treated) (humans [5]; [7]): 3/17
- safety and tolerability (humans [5]; single daily oral dose 10-150 mg for seven days, humans): safe, well tolerated at oral doses up to 150 mg
- serious adverse events (humans [5]; single daily oral dose up to 150 mg for seven days, humans): no serious adverse events were noted
- dose dependence of VAS scores and loss of weight (humans [6]; 10-150 mg daily for 7 days): more or less dose-dependent, with maximal effects in the 30 mg and 100 mg groups
- feelings of hunger, satiety and prospective food consumption (VAS) (humans [6]; 7 days daily oral dosing): consistently demonstrated reductions
- weight loss compared to placebo (humans [6]; Day 28): greater and maintained
